Laboratory results reported in patent publication US12594276B2, “Inhibitors of human immunodeficiency virus replication” (ViiV Healthcare UK (No.5) Limited, priority 2024, dated 2026).

How the values were obtained:
[1] = system: recombinant NL4-3 virus (nef section replaced with Renilla luciferase gene) in MT-2 cells; experiment: HIV cell culture assay (antiviral activity, luciferase readout); assay type: cell-based; details: Renilla, NL43, MT-2 cells infected for 4-5 days with recombinant NL4-3 Renilla luciferase virus
How it was run: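 MT-2 cells were infected for 4-5 days with reporter virus made by transfecting the recombinant NL4-3 proviral clone into 293T cells, in the presence of serial compound dilutions. Luciferase activity was read with a live-cell substrate. EC50 came from the exponential median effect equation, (Fa)=1/[1+(ED50/drug conc.)m].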

[2] = Compound cytotoxicity, XTT-based colorimetric assay; assay type: cell-based; details: human; uninfected MT2 cells, day 4, XTT; read-out: CC50
How it was run: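 Follows the antiviral assay procedure, but with uninfected MT2 cells. On day 4, cell viability is measured by XTT-based colorimetry, giving CC50 values.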

COCCCn1nc(NS(C)(=O)=O)c2c(Cl)ccc(-n3c([C@H](Cc4cc(F)cc(F)c4)NC(=O)Cn4nc(C(F)F)c5c4C(F)(F)[C@@H]4C[C@H]54)nc4nc(C5CCC(F)(F)CC5)cc(NCCC5CCCCO5)c4c3=O)c21 (stereo partly drawn) [Example 563, N-[(1S)-1-[(3P)-3-[4-chloro-3-methanesulfonamido-1-(3-methoxypropyl)-1H-indazol-7-yl]-7-(4,4-difluorocyclohexyl)-5-{[2-(oxan-2-yl)ethyl]amino}-4-oxo-3H,4H-pyrido[2,3-d]pyrimidin-2-yl]-2-(3,5-difluorophenyl)ethyl]-2-[(2S,4R)-9-(difluoromethyl)-5,5-difluoro-7,8-diazatricyclo[4.3.0.0^2,^4]nona-1(6),8-dien-7-yl]acetamide]
EC50 [1]: 0.019 nM
CC50 at 4 days [2]: > 20 nM

Cc1cc(C2CCC(F)(F)CC2)nc2nc([C@H](Cc3cc(F)cc(F)c3)NC(=O)Cn3nc(C4CC4)c4c3C[C@@H]3C[C@H]43)n(-c3ccc(Cl)c4c(NS(C)(=O)=O)nn(CCN5C[C@@H]6C[C@H]5CC6(F)F)c34)c(=O)c12 (atropisomer, axis not shown; (P)) [Example 311, N-[(1S)-1-[(3P)-3-(4-chloro-1-{2-[(1S,4S)-5,5-difluoro-2-azabicyclo[2.2.1]heptan-2-yl]ethyl}-3-methanesulfonamido-1H-indazol-7-yl)-7-(4,4-difluorocyclohexyl)-5-methyl-4-oxo-3H,4H-pyrido[2,3-d]pyrimidin-2-yl]-2-(3,5-difluorophenyl)ethyl]-2-[(2S,4S)-9-cyclopropyl-7,8-diazatricyclo[4.3.0.0^2,^4]nona-1(6),8-dien-7-yl]acetamide]
EC50 [1]: 0.013 nM
CC50 at 4 days [2]: > 50 nM

Cc1cc(C2(F)CCC(F)(F)CC2)nc2nc([C@H](Cc3cc(F)cc(F)c3)NC(=O)Cn3nc(C4CC4)c4c3C[C@@H]3C[C@H]43)n(-c3ccc(Cl)c4c(NS(C)(=O)=O)nn(CCN5CCOCC5(C)C)c34)c(=O)c12 (atropisomer, axis not shown; (P)) [Example 586, N-[(1S)-1-[(3P)-3-{4-chloro-1-[2-(3,3-dimethylmorpholin-4-yl)ethyl]-3-methanesulfonamido-1H-indazol-7-yl}-5-methyl-4-oxo-7-(1,4,4-trifluorocyclohexyl)-3H,4H-pyrido[2,3-d]pyrimidin-2-yl]-2-(3,5-difluorophenyl)ethyl]-2-[(2S,4S)-9-cyclopropyl-7,8-diazatricyclo[4.3.0.0^2,^4]nona-1(6),8-dien-7-yl]acetamide]
EC50 [1]: 0.016 nM
CC50 at 4 days [2]: > 20 nM

Cc1cc(C2CCC(F)(F)CC2)nc2nc([C@H](Cc3cc(F)cc(F)c3)NC(=O)Cn3nc(C(F)F)c4c3C(F)(F)[C@@H]3C[C@H]43)n(-c3ccc(Cl)c4c(NS(C)(=O)=O)nn(CC(=O)N(C)[C@@H]5CCOC5)c34)c(=O)c12 (atropisomer, axis not shown; (P)) [Example 405, N-[(1S)-1-[(3P)-3-[4-chloro-3-methanesulfonamido-1-({methyl[(3R)-oxolan-3-yl]carbamoyl}methyl)-1H-indazol-7-yl]-7-(4,4-difluorocyclohexyl)-5-methyl-4-oxo-3H,4H-pyrido[2,3-d]pyrimidin-2-yl]-2-(3,5-difluorophenyl)ethyl]-2-[(2S,4R)-9-(difluoromethyl)-5,5-difluoro-7,8-diazatricyclo[4.3.0.0^2,^4]nona-1(6),8-dien-7-yl]acetamide]
EC50 [1]: 0.034 nM
CC50 at 4 days [2]: > 20 nM

Cc1cc(C2(F)CCC(F)(F)CC2)nc2nc([C@H](Cc3cc(F)cc(F)c3)NC(=O)Cn3nc(C4CC4)c4c3C[C@@H]3C[C@H]43)n(-c3ccc(Cl)c4c(NS(C)(=O)=O)nn([C@H](C)CN5C[C@@H](C)O[C@@H](C)C5)c34)c(=O)c12 (relative stereo) [Example 730, N-[(1S)-1-[(3P)-3-{4-chloro-1-[(2R)-1-[(2R,6S)-2,6-dimethylmorpholin-4-yl]propan-2-yl]-3-methanesulfonamido-1H-indazol-7-yl}-5-methyl-4-oxo-7-(1,4,4-trifluorocyclohexyl)-3H,4H-pyrido[2,3-d]pyrimidin-2-yl]-2-(3,5-difluorophenyl)ethyl]-2-[(2R*,4R*)-9-cyclopropyl-7,8-diazatricyclo[4.3.0.0^2,^4]nona-1(6),8-dien-7-yl]acetamide]
EC50 [1]: 0.032 nM
CC50 at 4 days [2]: > 20 nM

CS(=O)(=O)Nc1nn(CCN[C@@H]2CCCOC2)c2c(-n3c([C@H](Cc4cc(F)cc(F)c4)NC(=O)Cn4nc(C(F)F)c5c4C(F)(F)[C@@H]4C[C@H]54)nc4nc(C5CCC(F)(F)CC5)ccc4c3=O)ccc(Cl)c12 (atropisomer, axis not shown; (P)) [Example 40, N-[(1S)-1-[(3P)-3-[4-chloro-3-methanesulfonamido-1-(2-{[(3R)-oxan-3-yl]amino}ethyl)-1H-indazol-7-yl]-7-(4,4-difluorocyclohexyl)-4-oxo-3H,4H-pyrido[2,3-d]pyrimidin-2-yl]-2-(3,5-difluorophenyl)ethyl]-2-[(2S,4R)-9-(difluoromethyl)-5,5-difluoro-7,8-diazatricyclo[4.3.0.0^2,^4]nona-1(6),8-dien-7-yl]acetamide]
EC50 [1]: 0.028 nM
CC50 at 4 days [2]: > 50 nM

Cc1cc(C2(F)CCC(F)(F)CC2)nc2nc([C@H](Cc3cc(F)cc(F)c3)NC(=O)Cn3nc(C(F)F)c4c3C[C@@H]3C[C@H]43)n(-c3ccc(Cl)c4c(NS(C)(=O)=O)nn(CCN5C[C@H](F)C[C@H](F)C5)c34)c(=O)c12 (atropisomer, axis not shown; (P)) [Example 571, N-[(1S)-1-[(3P)-3-(4-chloro-1-{2-[(3R,5S)-3,5-difluoropiperidin-1-yl]ethyl}-3-methanesulfonamido-1H-indazol-7-yl)-5-methyl-4-oxo-7-(1,4,4-trifluorocyclohexyl)-3H,4H-pyrido[2,3-d]pyrimidin-2-yl]-2-(3,5-difluorophenyl)ethyl]-2-[(2S,4S)-9-(difluoromethyl)-7,8-diazatricyclo[4.3.0.0^2,^4]nona-1(6),8-dien-7-yl]acetamide]
EC50 [1]: 0.014 nM
CC50 at 4 days [2]: > 20 nM

CC1(F)CCN(CCn2nc(NS(C)(=O)=O)c3c(Cl)ccc(-n4c([C@H](Cc5cc(F)cc(F)c5)NC(=O)Cn5nc(C(F)F)c6c5C(F)(F)[C@@H]5C[C@H]65)nc5nc(C6CCC(F)(F)CC6)ccc5c4=O)c32)CC1 (atropisomer, axis not shown; (P)) [Example 167, N-[(1S)-1-[(3P)-3-{4-chloro-1-[2-(4-fluoro-4-methylpiperidin-1-yl)ethyl]-3-methanesulfonamido-1H-indazol-7-yl}-7-(4,4-difluorocyclohexyl)-4-oxo-3H,4H-pyrido[2,3-d]pyrimidin-2-yl]-2-(3,5-difluorophenyl)ethyl]-2-[(2S,4R)-9-(difluoromethyl)-5,5-difluoro-7,8-diazatricyclo[4.3.0.0^2,^4]nona-1(6),8-dien-7-yl]acetamide]
EC50 [1]: 0.024 nM
CC50 at 4 days [2]: > 50 nM

CS(=O)(=O)Nc1nn(CCN2CCCC(F)(F)C2)c2c(-n3c([C@H](Cc4cc(F)cc(F)c4)NC(=O)Cn4nc(C(F)F)c5c4C(F)(F)[C@@H]4C[C@H]54)nc4nc(C5CCC(F)(F)CC5)ccc4c3=O)ccc(Cl)c12 (atropisomer, axis not shown; (P)) [Example 168, N-[(1S)-1-[(3P)-3-{4-chloro-1-[2-(3,3-difluoropiperidin-1-yl)ethyl]-3-methanesulfonamido-1H-indazol-7-yl}-7-(4,4-difluorocyclohexyl)-4-oxo-3H,4H-pyrido[2,3-d]pyrimidin-2-yl]-2-(3,5-difluorophenyl)ethyl]-2-[(2S,4R)-9-(difluoromethyl)-5,5-difluoro-7,8-diazatricyclo[4.3.0.0^2,^4]nona-1(6),8-dien-7-yl]acetamide]
EC50 [1]: 0.018 nM
CC50 at 4 days [2]: > 50 nM

Cc1cc(C2CCC(F)(F)CC2)nc2nc([C@H](Cc3cc(F)cc(F)c3)NC(=O)Cn3nc(C4CC4)c4c3C[C@@H]3C[C@H]43)n(-c3ccc(Cl)c4c(NS(C)(=O)=O)nn(CCN5CCO[C@H](C(C)C)C5)c34)c(=O)c12 (atropisomer, axis not shown; (P)) [Example 457, N-[(1S)-1-[(3P)-3-(4-chloro-3-methanesulfonamido-1-{2-[(2R)-2-(propan-2-yl)morpholin-4-yl]ethyl}-1H-indazol-7-yl)-7-(4,4-difluorocyclohexyl)-5-methyl-4-oxo-3H,4H-pyrido[2,3-d]pyrimidin-2-yl]-2-(3,5-difluorophenyl)ethyl]-2-[(2S,4S)-9-cyclopropyl-7,8-diazatricyclo[4.3.0.0^2,^4]nona-1(6),8-dien-7-yl]acetamide]
EC50 [1]: 0.007 nM
CC50 at 4 days [2]: > 20 nM

COCCCn1nc(NS(C)(=O)=O)c2c(Cl)ccc(-n3c([C@H](Cc4cc(F)cc(F)c4)NC(=O)Cn4nc(C(F)F)c5c4C(F)(F)[C@@H]4C[C@H]54)nc4nc(C5CCC(F)(F)CC5)cc(NCCN5C[C@@H](C)O[C@@H](C)C5)c4c3=O)c21 (atropisomer, axis not shown; (P)) [Example 475]
EC50 [1]: 0.004 nM
CC50 at 4 days [2]: > 20 nM

Cc1cc(C2CCC(F)(F)CC2)nc2nc([C@H](Cc3cc(F)cc(F)c3)NC(=O)Cn3nc(C(F)F)c4c3C(F)(F)[C@@H]3C[C@H]43)n(-c3ccc(Cl)c4c(NS(C)(=O)=O)nn(CCN5C[C@@H](F)C[C@H](F)C5)c34)c(=O)c12 (atropisomer, axis not shown; (P)) [Example 446, N-[(1S)-1-[(3P)-3-(4-chloro-1-{2-[(3S,5S)-3,5-difluoropiperidin-1-yl]ethyl}-3-methanesulfonamido-1H-indazol-7-yl)-7-(4,4-difluorocyclohexyl)-5-methyl-4-oxo-3H,4H-pyrido[2,3-d]pyrimidin-2-yl]-2-(3,5-difluorophenyl)ethyl]-2-[(2S,4R)-9-(difluoromethyl)-5,5-difluoro-7,8-diazatricyclo[4.3.0.0^2,^4]nona-1(6),8-dien-7-yl]acetamide]
EC50 [1]: 0.009 nM
CC50 at 4 days [2]: > 20 nM
